Laboratory results as given in PMC6651387, “Fine-Tuning the Activation Mode of an 1,3-Indandione-Based Ruthenium(II)-Cymene Half-Sandwich Complex by Variation of Its Leaving Group” (Molecules, 2019).
Where “and” joins values, the source holds several entries; their conditions need not be identical. Equal entries are not always repeated.

Legend:
[1] = pH-dependent stability by UV-VIS spectroscopy; type: physicochemical; conditions: for precipitation at pH 7.4: 40 µM, PBS, 1% DMSO, loss of absorbance without change in spectrum
Source text: The stability under physiological conditions is a vital part of the process of developing a new drug. Additionally, N-donor leaving groups equip piano-stool complexes with an elegant pH-switch. Theoretically, they can be protonated at lower pH values, as found in the extracellular matrix of the tumor tissue, and are therefore cleaved off. The resulting aqua complex is highly reactive and able to interact with biological targets. To put this theory to the test, the stability of complexes 1a–g was investigated at different pH values, i.e., 5.5, 6.5, 7.4, and 8.5. Spectra were recorded over a period of 24 h, with 40 µM solutions (1% DMSO in water) in the range of 250–700 nm. The chosen pH values represented the physiologically relevant conditions; a pH value of 8.5 is the highest pH found in the human body (in the duodenum), a pH value of 7.4 is the average pH of human blood, and a pH value of 6.5 is the pH found in the extracellular matrix of solid tumors.
Stability measurements were performed on a Lambda 35 UV/VIS spectrometer (Perkin Elmer, Boston, MA, USA). Samples of complexes 1a–g: 40 µM in PBS (pH 7.4) and isotonic saline phosphate buffer with 0.9% sodium chloride (pH 8.5), diluted isotonic acetic acid (pH 5.5), and acetate buffer (pH 6.5) with 1% DMSO. UV-VIS spectra were recorded hourly for 24 h at 37 °C. Temperature control was maintained by a PTP-6 Peltier System (Perkin Elmer, Boston, MA, USA).

[2] = test system: SW480 cells; assay: Cellular accumulation by ICP-MS quantification of ruthenium (or platinum); type: cell-based, human; conditions: 50 µM; for cellular ruthenium values: ICP-MS; for cellular accumulation, fg Ru or Pt/Cell: exposure time 2 h, ICP-MS of ruthenium
Procedure: Ruthenium accumulation was measured by means of inductively coupled plasma mass spectrometry (ICP-MS) upon 2 h exposure of SW480 cells to 50 µM of each compound.
Cellular accumulation of the compounds was studied based on a previously described method with modifications as follows: SW480 cells with a number of 1.8 × 10^5 per well were seeded into 12-well plates in aliquots of 1 mL complete MEM and incubated at 37 °C for 24 h. Then, cells were exposed for 2 h at 37 °C to 50 μM solutions of the test compounds (containing 0.5% DMSO) in 500 µL of fresh complete MEM upon exchange of the medium. Afterwards, cells were washed three times with PBS, and lyzed with 0.4 mL sub-boiled HNO3 per well for 1 h at room temperature. Ruthenium content was quantified by ICP-MS using an Agilent 7500ce quadrupole ICP-MS instrument (Agilent Technologies, Waldbronn, Germany) equipped with a CETAC ASX-520 autosampler (Nebraska, USA) and a MicroMist nebulizer. Ruthenium and indium standards were obtained from CPI International (Amsterdam, The Netherlands). The instrument was equipped with nickel cones and operated at an RF power of 1560 W, with argon as the plasma gas (15 L/min), carrier gas (1.0–1.1 L/min) and make-up gas (0.1–0.2 L/min). The Agilent MassHunter software package (Workstation Software, Version B.01.01, Build 123.11, Patch 4, 2012) was used for data processing. Results are based on at least three independent experiments, each comprising triplicate samples. The instrument was tuned on a daily basis for maximum sensitivity and doubly charged species as well as oxide rates were <5%.

[3] = Solubility in minimal essential medium (MEM, 1% DMSO)
Procedure: Melting points were determined with a Büchi Melting Point M-560. The solubility was determined by dissolving the compound in DMSO and subsequent dilution to a final concentration of 1% DMSO/MEM solution (minimal essential medium) and 1% DMSO/MSP solution (medium with serum proteins). The highest concentrated dilution, where no precipitation of the compound occurred, was the determined solubility. The NMR spectra were recorded at 25 °C using a Bruker FT-NMR spectrometer Avance III^TM 500 MHz. ^1H-NMR spectra were measured at 500.10 MHz and ^13C-NMR spectra were recorded at 125.75 MHz in deuterated methanol (CD3OD). 2D-NMR spectra were measured using a gradient-enhanced mode. CHN elemental analyses were performed with a Eurovector EA3000 Elemental Analyzer in the microanalytical laboratory of the University of Vienna. Single crystals of complexes 1b–1f suitable for X-ray diffraction analysis were grown by precipitation from DCM/Et2O at 4 °C. The X-ray intensity data were measured on Bruker D8 Venture or X8 APEX II diffractometer equipped with multilayer monochromators, Mo K/α INCOATEC microfocus sealed tubes and Kryoflex cooling devices (Bruker, Karlsruhe, Germany). The structures were solved by direct methods and refined by full-matrix least-squares techniques. Non-hydrogen atoms were refined with anisotropic displacement parameters. Hydrogen atoms were inserted at calculated positions and refined with a riding model separately as rotating groups. The following software was used: Bruker SAINT software package using a narrow-frame algorithm for frame integration, SADABS [33] for absorption correction, OLEX2 [34] for structure solution, refinement, molecular diagrams and graphical user-interface, Shelxle for refinement and graphical user-interface, SHELXS-2013 [36] for structure solution, SHELXL-2013 [37] for refinement, and Platon for symmetry check. Electronspray ionization mass spectra were recorded on a Bruker AmaZon SL ion trap mass spectrometer (Bruker Daltonics GmbH, Hamburg, Germany).

SMILES | hydrolysis in aqueous systems ([1]; aquation to the aqua complex) | cellular ruthenium accumulation relative to complex 1d ([2]; 2 h) | cellular ruthenium values ([2]; 2 h) | cellular accumulation, fg Ru or Pt/Cell [2] | solubility [3] | precipitation at pH 7.4 [1]
Cc1ccc(C(C)C)cc1.O=C1C2=C(NCc3ccccc3)[O][Ru-]([Cl])[O+]=C2c2ccccc21 [1a] | hydrolyzed quickly to the more reactive aqua complex | almost fiftyfold lower | < 10 fg/cell | 8.4 ± 2.8 fg Ru or Pt/Cell |  | 
Cc1ccc(C(C)C)cc1.Cn1ccnc1.F[P-](F)(F)(F)(F)F.O=C1C(=C(NCc2ccccc2)[O][Ru+])C(=O)c2ccccc21 [1b] |  |  |  | 97 ± 28 fg Ru or Pt/Cell | 0.30 mg/mL and 0.40 mM | 
Cc1ccc(C(C)C)cc1.F[P-](F)(F)(F)(F)F.O=C1C2=C(NCc3ccccc3)[O][Ru-]([n+]3ccc[nH]3)[O+]=C2c2ccccc21 [1c] |  |  |  | 67 ± 27 fg Ru or Pt/Cell | 0.28 mg/mL and 0.39 mM | 
Cc1ccc(C(C)C)cc1.F[P-](F)(F)(F)(F)F.O=C1C2=C(NCc3ccccc3)[O][Ru-]([n+]3c[nH]c4ccccc43)[O+]=C2c2ccccc21 [1d] |  |  | > 400 fg/cell | 405 ± 128 fg Ru or Pt/Cell | 0.29 mg/mL and 0.37 mM | precipitated to some extent
Cc1ccc(C(C)C)cc1.F[P-](F)(F)(F)(F)F.O=C1C2=C(NCc3ccccc3)[O][Ru-]([n+]3cc4ccccc4[nH]3)[O+]=C2c2ccccc21 [1e] |  |  |  | 114 ± 35 fg Ru or Pt/Cell | 0.06 mg/mL and 0.08 mM | precipitated to some extent
Cc1ccc(C(C)C)cc1.F[P-](F)(F)(F)(F)F.O=C1C2=C(NCc3ccccc3)[O][Ru-]([NH+]3CCOCC3)[O+]=C2c2ccccc21 [1g] |  |  |  | 123 ± 32 fg Ru or Pt/Cell | 0.22 mg/mL and 0.29 mM | 
